Counter-ions that a name gives are not always drawn. Like-named read-outs stand apart in the source and are kept apart here. Marks after values point to notes of the source that are not given here.

Assay [1] addresses T1, human recombinant serotonin 5-HT2A receptor (Homo sapiens, UniProt P28223).
T1 construct: purchased PerkinElmer Life and Analytical Sciences, USA; host or cells: CHO-K1 cells
The assay is described as follows: Binding affinity for serotonin 5-HT2A receptor ([3H]Ketanserin). Here is the method: (§1) Receptor binding affinities of the compounds for serotonin receptors were measured by the method described in the literature (see [Park W K et al., Pharmacol Biochem Behav., 82(2), 361-372 (2005)].
For serotonin 5-HT2A binding, an aliquot of human recombinant serotonin 5-HT2A receptor (PerkinElmer Life and Analytical Sciences, USA) expressed in CHO-K1 cells (5 μg/well) and 1 nM [^3H]Ketanserin (PerkinElmer) were used in the presence of mianserin (20 μM) as a nonspecific. The reaction mixture was incubated for 60 min […] 50 mM Tris-HCl (pH 7.4) buffer containing 4 mM CaCl2 and 0.1% ascorbic acid, and harvested through filtermate A glass fiber filter (Wallac, Finland) presoaked in 0.5% polyethyleneimine (PEI) by microbeta filtermate-96 harvester (PerkinElmer) to terminate the reaction, and then washed with ice cold 50 mM Tris-HCl buffer solution (pH 7.4). The filter was then covered with MeltiLex, sealed in a sample bag, dried in an oven. The radioactivity retained in the filter was finally counted using MicroBeta Plus (Wallac).
(§2) The binding affinity (IC50) of a compound for the receptor was calculated by computerized nonlinear regression analysis (GraphPad Prism Program, San Diego, USA) using 7-8 varied concentrations of the compound run in duplicate tubes.

Assay [2] addresses T2, human recombinant 5-HT2C receptor (Homo sapiens, UniProt P28335).
T2 construct: purchased PerkinElmer
T2 sequence (P28335 33-458): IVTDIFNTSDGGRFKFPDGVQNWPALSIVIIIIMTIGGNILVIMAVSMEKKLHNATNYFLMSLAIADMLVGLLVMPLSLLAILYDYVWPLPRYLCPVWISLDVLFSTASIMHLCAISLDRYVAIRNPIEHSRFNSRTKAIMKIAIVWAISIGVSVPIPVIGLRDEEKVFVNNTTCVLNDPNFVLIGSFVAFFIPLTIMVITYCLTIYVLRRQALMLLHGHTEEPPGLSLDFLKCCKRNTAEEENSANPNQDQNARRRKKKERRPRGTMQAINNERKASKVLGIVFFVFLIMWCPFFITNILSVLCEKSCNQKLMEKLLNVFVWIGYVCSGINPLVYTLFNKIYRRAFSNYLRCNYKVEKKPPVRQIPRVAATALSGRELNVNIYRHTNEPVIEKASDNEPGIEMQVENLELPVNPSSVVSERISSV
The assay is described as follows: Binding affinity for serotonin 5-HT2C receptor ([3H]Mesulergine). How it is done:
as §1, §2
For serotonin 5-HT2C binding, frozen membranes from stable CHO-K1 cell line expressing the human recombinant 5-HT2C receptor (PerkinElmer, 4 μg/well), [^3H]Mesulergine (Amersham, 1.3 nM) and test compounds were added into 50 mM Tris-HCl (pH 7.4) buffer containing 0.1% ascorbic acid and 4 mM CaCl2. Nonspecific binding was determined using 100 μM mianserin. The incubations were performed for 60 min at 27, and these were terminated by rapid filtration through filtermate A glass fiber filter presoaked in 0.5% PEI.

For a further assay, the system named is mice. The assay is described as follows: Anti-depressants activity in forced swimming test. The settings on record: 60 min before testing. The format is in vivo.
Assay [3] addresses T3, human serotonin transporter (Homo sapiens, UniProt P31645).
T3 construct: purchased PerkinElmer; host or cells: HEK-293 cells
The assay is described as follows: Binding affinity for serotonin transporter ([3H]Imipramine). Here is the method: For serotonin transporter binding assays, a reaction mixture with a final volume of 0.25 ml was prepared by mixing a test compound, human serotonin transporter membrane expressed in HEK-293 cells (PerkinElmer, 5 μg/well), [^3H] Imipramine (PerkinElmer, 2 nM) and 50 mM Tris-HCl (pH 7.4) buffer containing 120 mM NaCl and 5 mM KCl. The reaction mixture was incubated for 30 min at 27, and harvested through filtermate A glass fiber filter presoaked in 0.5% PEI with ice cold 50 mM Tris-HCl buffer (pH 7.4) containing 0.9% NaCl.

Where [4] appears, read: CHO-K1 cells, 1 nM [3H]Ketanserin, read-out: binding affinity (IC50) 5-HT2A.
Setting [5] is: CHO-K1 membranes, 1.3 nM [3H]Mesulergine, read-out: binding affinity (IC50) 5-HT2C.
The mark [6] stands for this setting: HEK-293 membrane, 2 nM [3H]Imipramine, read-out: binding affinity Serotonin Transporter.

T1 sequence (P28223 whole entry): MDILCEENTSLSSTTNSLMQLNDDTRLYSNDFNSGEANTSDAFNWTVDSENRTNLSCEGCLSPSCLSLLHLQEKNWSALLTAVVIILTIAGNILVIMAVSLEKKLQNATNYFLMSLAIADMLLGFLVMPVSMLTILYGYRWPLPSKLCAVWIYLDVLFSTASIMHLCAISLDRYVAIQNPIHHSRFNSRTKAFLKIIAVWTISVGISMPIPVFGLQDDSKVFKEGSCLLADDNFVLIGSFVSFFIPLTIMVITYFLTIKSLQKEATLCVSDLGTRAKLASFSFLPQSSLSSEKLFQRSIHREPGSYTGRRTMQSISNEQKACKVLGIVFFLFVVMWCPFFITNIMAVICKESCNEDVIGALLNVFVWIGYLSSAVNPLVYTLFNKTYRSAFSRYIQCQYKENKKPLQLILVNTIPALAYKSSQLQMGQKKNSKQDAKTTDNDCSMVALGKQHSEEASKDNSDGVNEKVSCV
T3 sequence (P31645 whole entry): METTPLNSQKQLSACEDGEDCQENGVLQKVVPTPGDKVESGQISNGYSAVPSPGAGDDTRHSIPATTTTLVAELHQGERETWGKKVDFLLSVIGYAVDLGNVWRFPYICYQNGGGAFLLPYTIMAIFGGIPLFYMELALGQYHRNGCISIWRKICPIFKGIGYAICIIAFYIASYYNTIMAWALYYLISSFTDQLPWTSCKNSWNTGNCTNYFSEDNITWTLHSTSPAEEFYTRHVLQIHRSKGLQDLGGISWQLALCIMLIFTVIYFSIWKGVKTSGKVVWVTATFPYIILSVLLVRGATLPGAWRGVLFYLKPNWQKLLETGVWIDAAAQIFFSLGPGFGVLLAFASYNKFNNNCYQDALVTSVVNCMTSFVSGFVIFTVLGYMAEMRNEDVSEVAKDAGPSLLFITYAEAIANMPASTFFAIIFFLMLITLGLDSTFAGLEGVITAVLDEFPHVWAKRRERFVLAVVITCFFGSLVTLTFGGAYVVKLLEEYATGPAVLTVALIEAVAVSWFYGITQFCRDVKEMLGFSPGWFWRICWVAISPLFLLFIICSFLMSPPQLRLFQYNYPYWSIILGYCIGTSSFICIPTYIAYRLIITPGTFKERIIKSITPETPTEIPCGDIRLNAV
Method for mice: Each mouse was placed in a 25 cm glass cylinder (10 cm diameter) containing 15 cm of water maintained at 22±1, and was forced to swim for 10 min. 24 hours later, the mouse was replaced into the cylinder and the total duration of immobility was recorded during the last 5 min of the 6-min testing period. Mice are judged immobile when they float in an upright position and make only small movements to keep their head above water. Test drugs were suspended in 3% Tween 80 solution, and administered orally (po) 60 min before the testing.

Consider `Clc1cccc(N2CCN(CCCNc3ncnc4c3nc(-c3ccccc3)n4-c3ccccc3)CC2)c1Cl` [Example 1, N-(3-(4-(2,3-dichlorophenyl)piperazin-1-yl)propyl)-8,9-diphenyl-9H-purine-6-amine], for which the IC50 worked out at 14 nM in assay [1], 86 nM in assay [2] and 64 nM in assay [3]. Further, the “Immobility in forced swimming test” value in the assay with mice (50 mg/kg po) came out at 41.79%.
As for `Cc1cccc(N2CCN(CCCNc3ncnc4c3nc(-c3ccccc3)n4-c3ccccc3)CC2)c1C` [Example 2, N-(3-(4-(2,3-dimethylphenyl)piperazin-1-yl)propyl)-8,9-diphenyl-9H-purine-6-amine], the results for the IC50 in assay [1] (setting [4]), in assay [2] (setting [5]) and in assay [3] (setting [6]) were 32 nM, 163 nM and 75 nM, respectively. Besides, the “Immobility in forced swimming test” value is on record as 58.34 ± 11.05% in the assay with mice (25 mg/kg po) and 47.13 ± 10.41% in the assay on mice (50 mg/kg po).
In the case of `CCc1nc2c(NCCN3CCN(c4cccc(C)c4C)CC3)ncnc2n1-c1ccccc1` [Example 10, N-(2-(4-(2,3-dimethylphenyl)piperazin-1-yl)ethyl)-8-ethyl-9-phenyl-9H-purine-6-amine], the IC50 in assay [1] (setting [4]) came to 11 nM; in assay [2] (setting [5]), 106 nM; in assay [3] (setting [6]), 161 nM. The “Immobility in forced swimming test” value in the assay on mice (25 mg/kg po) was determined as 74.56 ± 14.08%; in the assay with mice (50 mg/kg po), 80.58 ± 11.21%.
For `CCCc1nc2c(NCCN3CCN(c4cccc(C)c4C)CC3)ncnc2n1-c1ccccc1` [Example 12, N-(2-(4-(2,3-dimethylphenyl)piperazin-1-yl)ethyl)-9-phenyl-8-propyl-9H-purine-6-amine], the IC50 in assay [1] (setting [4]) was 13 nM; in assay [2] (setting [5]) it was 147 nM; in assay [3] (setting [6]), 93 nM. The “Immobility in forced swimming test” value with mice (25 mg/kg po) was found to be 94.69 ± 12.46%.
For the molecule `Cc1cccc(N2CCN(CCCNc3ncnc4c3ncn4-c3ccccc3)CC2)c1C` [Example 13, N-(3-(4-(2,3-dimethylphenyl)piperazin-1-yl)propyl)-9-phenyl-9H-purine-6-amine], the values for the IC50 in assay [1] (setting [4]), in assay [2] (setting [5]) and in assay [3] (setting [6]) were 56 nM, 294 nM and 35 nM, respectively. Moreover, the “Immobility in forced swimming test” value with mice (25 mg/kg po) was found to be 89.81 ± 7.14%.
The corresponding values for `Cc1cccc(N2CCN(CCNc3ncnc4c3nc(-c3ccccc3)n4-c3ccccc3)CC2)c1C` [Example 18, N-(2-(4-(2,3-dimethylphenyl)piperazin-1-yl)ethyl)-8,9-diphenyl-9H-purine-6-amine] are 28 nM, 216 nM, 575 nM and 89.98 ± 11.45%.
`Cc1c(Cl)cccc1N1CCN(CCCNc2ncnc3c2nc(-c2ccccc2)n3-c2ccccc2)CC1` [Example 67, N-(3-(4-(3-chloro-2-methylphenyl)piperazin-1-yl)propyl)-8,9-diphenyl-9H-purine-6-amine]: the IC50 in assay [1] (setting [4]) is 42 nM; in assay [2] (setting [5]), 247 nM; in assay [3] (setting [6]), 96 nM.
With `Cc1cccc(N2CCN(CCCNc3ncnc4c3nc(-c3ccccc3)n4-c3ccc(F)cc3)CC2)c1C` [Example 79, N-(3-(4-(2,3-dimethylphenyl)piperazin-1-yl)propyl)-9-(4-fluorophenyl)-8-phenyl-9H-purine-6-amine], the IC50 in assay [1] (setting [4]) was determined as 43 nM; in assay [2] (setting [5]), 303 nM; in assay [3] (setting [6]) it was 67 nM.
In the same order, the values of `CSc1ccc(-n2c(C)nc3c(NCCN4CCN(c5cccc(C)c5C)CC4)ncnc32)cc1` [Example 85, N-(2-(4-(2,3-dimethylphenyl)piperazin-1-yl)ethyl)-8-methyl-9-(4-(methylthio)phenyl)-9H-purine-6-amine hydrochloride] are 9.6 nM, 70 nM and 362 nM.
Take `CNCCC(Oc1ccc(C(F)(F)F)cc1)c1ccccc1` (stereo not shown) [Fluoxetine, reference compound]: the “Immobility in forced swimming test” value in the assay on mice (50 mg/kg po) was 70.4^b %; in the assay with mice (100 mg/kg po), 59.5^b %.

For the origin of these results see US8785453B2, “Arylpiperazine-containing purine derivatives and uses thereof” (Green Cross Corporation, priority 2009, dated 2014).
